According to the NIST ThermoML archive (doi:10.1016/j.jct.2010.08.021):
Values joined by “and” are separate entries in the source; they are usually repeats but may differ in a detail not shown here. Equal values may be shown once.

Test: mn = molality of the nth substance listed, in mol/kg
Conditions: 101 kPa, Liquid; for speed of sound: Sing-around technique in a fixed-path interferometer; for mass density: Vibrating tube method

N.N.O=C(O)CC(O)(CC(=O)O)C(=O)O [ammonium citrate, dibasic] + O
Conditions	mass density	speed of sound
288.15 K, m1 = 0.0059	999.706 kg/m3	1467.4 m/s
288.15 K, m1 = 0.0071	999.822 kg/m3	1467.6 m/s
288.15 K, m1 = 0.0087	999.992 kg/m3	1467.9 m/s
288.15 K, m1 = 0.0129	1000.42 kg/m3	1468.5 m/s
288.15 K, m1 = 0.0177	1000.9 kg/m3	1469.1 m/s
288.15 K, m1 = 0.0222	1001.37 kg/m3	1469.7 m/s
288.15 K, m1 = 0.0266	1001.8 kg/m3	1470.2 m/s
288.15 K, m1 = 0.0311	1002.26 kg/m3	1470.9 m/s
288.15 K, m1 = 0.0354	1002.69 kg/m3	1471.5 m/s
288.15 K, m1 = 0.0423	1003.38 kg/m3	1472.4 m/s
288.15 K, m1 = 0.0446	1003.62 kg/m3	1472.8 m/s
288.15 K, m1 = 0.0468	1003.84 kg/m3	1473.1 m/s
288.15 K, m1 = 0.0492	1004.09 kg/m3	1473.4 m/s
288.15 K, m1 = 0.0562	1004.75 kg/m3	1474.3 m/s
288.15 K, m1 = 0.0645	1005.59 kg/m3	1475.4 m/s
288.15 K, m1 = 0.0748	1006.57 kg/m3	1476.8 m/s
288.15 K, m1 = 0.0797	1007.07 kg/m3	1477.4 m/s
288.15 K, m1 = 0.09	1008.08 kg/m3	1478.8 m/s
288.15 K, m1 = 0.5	1044.77 kg/m3 and 1044.77 kg/m3 and 1044.73 kg/m3	1529.2 m/s and 1529 m/s and 1529 m/s
288.15 K, m1 = 0.988	1082.62 kg/m3	1585.1 m/s
288.15 K, m1 = 0.997	1082.58 kg/m3	1584.9 m/s
288.15 K, m1 = 0.998	1082.63 kg/m3	1585 m/s
293.15 K, m1 = 0.0059	998.799 kg/m3	1483.5 m/s
293.15 K, m1 = 0.0071	998.916 kg/m3	1483.7 m/s
293.15 K, m1 = 0.0087	999.084 kg/m3	1483.9 m/s
293.15 K, m1 = 0.0129	999.5 kg/m3	1484.5 m/s
293.15 K, m1 = 0.0177	999.976 kg/m3	1485.1 m/s
293.15 K, m1 = 0.0222	1000.44 kg/m3	1485.7 m/s
293.15 K, m1 = 0.0266	1000.87 kg/m3	1486.2 m/s
293.15 K, m1 = 0.0311	1001.32 kg/m3	1486.8 m/s
293.15 K, m1 = 0.0354	1001.75 kg/m3	1487.4 m/s
293.15 K, m1 = 0.0423	1002.43 kg/m3	1488.3 m/s
293.15 K, m1 = 0.0446	1002.67 kg/m3	1488.7 m/s
293.15 K, m1 = 0.0468	1002.88 kg/m3	1488.9 m/s
293.15 K, m1 = 0.0492	1003.13 kg/m3	1489.3 m/s
293.15 K, m1 = 0.0562	1003.78 kg/m3	1490.1 m/s
293.15 K, m1 = 0.0645	1004.61 kg/m3	1491.2 m/s
293.15 K, m1 = 0.0748	1005.58 kg/m3	1492.5 m/s
293.15 K, m1 = 0.0797	1006.07 kg/m3	1493.1 m/s
293.15 K, m1 = 0.09	1007.07 kg/m3	1494.4 m/s
293.15 K, m1 = 0.5	1043.38 kg/m3 and 1043.38 kg/m3 and 1043.34 kg/m3	1542.8 m/s and 1542.6 m/s and 1542.7 m/s
293.15 K, m1 = 0.988	1080.92 kg/m3	1596.5 m/s
293.15 K, m1 = 0.997	1080.88 kg/m3	1596.4 m/s
293.15 K, m1 = 0.998	1080.93 kg/m3	1596.5 m/s
298.15 K, m1 = 0.0059	997.633 kg/m3	1497.7 m/s
298.15 K, m1 = 0.0071	997.747 kg/m3	1497.9 m/s
298.15 K, m1 = 0.0087	997.913 kg/m3	1498.1 m/s
298.15 K, m1 = 0.0129	998.325 kg/m3	1498.7 m/s
298.15 K, m1 = 0.0177	998.796 kg/m3	1499.3 m/s
298.15 K, m1 = 0.0222	999.256 kg/m3	1499.9 m/s
298.15 K, m1 = 0.0266	999.681 kg/m3	1500.3 m/s
298.15 K, m1 = 0.0311	1000.12 kg/m3	1501 m/s
298.15 K, m1 = 0.0354	1000.55 kg/m3	1501.5 m/s
298.15 K, m1 = 0.0423	1001.23 kg/m3	1502.4 m/s
298.15 K, m1 = 0.0446	1001.46 kg/m3	1502.7 m/s
298.15 K, m1 = 0.0468	1001.67 kg/m3	1503 m/s
298.15 K, m1 = 0.0492	1001.92 kg/m3	1503.3 m/s
298.15 K, m1 = 0.0562	1002.56 kg/m3	1504.1 m/s
298.15 K, m1 = 0.0645	1003.38 kg/m3	1505.2 m/s
298.15 K, m1 = 0.0748	1004.34 kg/m3	1506.4 m/s
298.15 K, m1 = 0.0797	1004.83 kg/m3	1507 m/s
298.15 K, m1 = 0.09	1005.81 kg/m3	1508.2 m/s
298.15 K, m1 = 0.5	1041.8 kg/m3 and 1041.8 kg/m3 and 1041.76 kg/m3	1554.8 m/s and 1554.6 m/s and 1554.6 m/s
298.15 K, m1 = 0.988	1079.09 kg/m3	1606.5 m/s
298.15 K, m1 = 0.997	1079.04 kg/m3	1606.4 m/s
298.15 K, m1 = 0.998	1079.09 kg/m3	1606.5 m/s
303.15 K, m1 = 0.0059	996.228 kg/m3	1510.1 m/s
303.15 K, m1 = 0.0071	996.341 kg/m3	1510.3 m/s
303.15 K, m1 = 0.0087	996.506 kg/m3	1510.5 m/s
303.15 K, m1 = 0.0129	996.916 kg/m3	1511 m/s
303.15 K, m1 = 0.0177	997.381 kg/m3	1511.6 m/s
303.15 K, m1 = 0.0222	997.837 kg/m3	1512.2 m/s
303.15 K, m1 = 0.0266	998.259 kg/m3	1512.6 m/s
303.15 K, m1 = 0.0311	998.698 kg/m3	1513.2 m/s
303.15 K, m1 = 0.0354	999.119 kg/m3	1513.8 m/s
303.15 K, m1 = 0.0423	999.789 kg/m3	1514.6 m/s
303.15 K, m1 = 0.0446	1000.02 kg/m3	1514.9 m/s
303.15 K, m1 = 0.0468	1000.23 kg/m3	1515.1 m/s
303.15 K, m1 = 0.0492	1000.48 kg/m3	1515.4 m/s
303.15 K, m1 = 0.0562	1001.11 kg/m3	1516.2 m/s
303.15 K, m1 = 0.0645	1001.92 kg/m3	1517.2 m/s
303.15 K, m1 = 0.0748	1002.88 kg/m3	1518.4 m/s
303.15 K, m1 = 0.0797	1003.36 kg/m3	1519 m/s
303.15 K, m1 = 0.09	1004.34 kg/m3	1520.2 m/s
303.15 K, m1 = 0.5	1040.04 kg/m3 and 1040.04 kg/m3 and 1040 kg/m3	1565.1 m/s and 1564.9 m/s and 1564.9 m/s
303.15 K, m1 = 0.988	1077.11 kg/m3	1615 m/s
303.15 K, m1 = 0.997	1077.07 kg/m3	1614.9 m/s
303.15 K, m1 = 0.998	1077.11 kg/m3	1615 m/s
308.15 K, m1 = 0.0059	994.605 kg/m3	1520.8 m/s
308.15 K, m1 = 0.0071	994.721 kg/m3	1520.9 m/s
308.15 K, m1 = 0.0087	994.88 kg/m3	1521.1 m/s
308.15 K, m1 = 0.0129	995.288 kg/m3	1521.6 m/s
308.15 K, m1 = 0.0177	995.753 kg/m3	1522.2 m/s
308.15 K, m1 = 0.0222	996.203 kg/m3	1522.8 m/s
308.15 K, m1 = 0.0266	996.623 kg/m3	1523.2 m/s
308.15 K, m1 = 0.0311	997.058 kg/m3	1523.8 m/s
308.15 K, m1 = 0.0354	997.475 kg/m3	1524.3 m/s
308.15 K, m1 = 0.0423	998.143 kg/m3	1525.1 m/s
308.15 K, m1 = 0.0446	998.37 kg/m3	1525.4 m/s
308.15 K, m1 = 0.0468	998.58 kg/m3	1525.6 m/s
308.15 K, m1 = 0.0492	998.825 kg/m3	1525.9 m/s
308.15 K, m1 = 0.0562	999.453 kg/m3	1526.7 m/s
308.15 K, m1 = 0.0645	1000.26 kg/m3	1527.7 m/s
308.15 K, m1 = 0.0748	1001.21 kg/m3	1528.8 m/s
308.15 K, m1 = 0.0797	1001.68 kg/m3	1529.4 m/s
308.15 K, m1 = 0.09	1002.65 kg/m3	1530.5 m/s
308.15 K, m1 = 0.5	1038.13 kg/m3 and 1038.12 kg/m3 and 1038.08 kg/m3	1573.9 m/s and 1573.7 m/s and 1573.7 m/s
308.15 K, m1 = 0.988	1075.01 kg/m3	1622.1 m/s
308.15 K, m1 = 0.997	1074.96 kg/m3	1622 m/s
308.15 K, m1 = 0.998	1075.01 kg/m3	1622.1 m/s
313.15 K, m1 = 0.0059	992.787 kg/m3	1529.8 m/s
313.15 K, m1 = 0.0071	992.9 kg/m3	1530 m/s
313.15 K, m1 = 0.0087	993.06 kg/m3	1530.2 m/s
313.15 K, m1 = 0.0129	993.463 kg/m3	1530.7 m/s
313.15 K, m1 = 0.0177	993.924 kg/m3	1531.3 m/s
313.15 K, m1 = 0.0222	994.373 kg/m3	1531.8 m/s
313.15 K, m1 = 0.0266	994.79 kg/m3	1532.2 m/s
313.15 K, m1 = 0.0311	995.224 kg/m3	1532.8 m/s
313.15 K, m1 = 0.0354	995.638 kg/m3	1533.3 m/s
313.15 K, m1 = 0.0423	996.299 kg/m3	1534.1 m/s
313.15 K, m1 = 0.0446	996.527 kg/m3	1534.3 m/s
313.15 K, m1 = 0.0468	996.735 kg/m3	1534.6 m/s
313.15 K, m1 = 0.0492	996.978 kg/m3	1534.8 m/s
313.15 K, m1 = 0.0562	997.604 kg/m3	1535.6 m/s
313.15 K, m1 = 0.0645	998.406 kg/m3	1536.6 m/s
313.15 K, m1 = 0.0748	999.345 kg/m3	1537.7 m/s
313.15 K, m1 = 0.0797	999.818 kg/m3	1538.2 m/s
313.15 K, m1 = 0.09	1000.78 kg/m3	1539.3 m/s
313.15 K, m1 = 0.5	1036.06 kg/m3 and 1036.02 kg/m3	1581.2 m/s and 1581 m/s and 1581 m/s
313.15 K, m1 = 0.988	1072.78 kg/m3	1628 m/s
313.15 K, m1 = 0.997	1072.73 kg/m3	1627.9 m/s
313.15 K, m1 = 0.998	1072.78 kg/m3	1628 m/s
